Experimental data: paper PMC9764201, “Half-calcified calmodulin promotes basal activity and inactivation of the L-type calcium channel CaV1.2” (The Journal of Biological Chemistry, 2022)

Columns and labels:
CaV1.2 [1] = experiment: Cell-attached single-channel recording of CaV1.2 variants in HEK 293T/17 cells; type: cell-based, rat; details: 110 mM Ba2+, 0 mV from -80 mV; n=8; mean±SEM (Table S2)
Description: (§1) HEK 293T/17 cells (ATCC) were maintained as previously described ([15], [53]). For electrophysiology, Lipofectamine 2000 (Invitrogene) or JetPrime (Polyplus Transfection) was used to transiently transfect cells with indicated plasmid DNAs in 35 mm dishes. For biochemistry experiments, transient transfection of HEK 293T/17 cells in […] dishes was achieved using either JetPrime or, as previously described ([15], [53]), the calcium phosphate method. Cells were cotransfected with plasmids encoding the pore-forming α11.2 subunit N-terminally tagged with eCFP ([15], [53]) or mCherry ([54]) plus pGWIH-based plasmids encoding the auxiliary subunits rat β2A ([55]) and rabbit α2δ-1 ([56]) as previously described ([15], [53]). For all transfections, equimolar ratio of 1:1:1 was used for CaV1.2 channel subunits and later further optimized (JetPrime) for CaM (at ratio of 1:1:1:0.5 for α11.2:β2A:α2δ−1:CaM). Rat brain α11.2 (GenBank ID: M67515.1) N-terminally fused to eCFP was utilized as previously described ([15]). The point mutations in plasmids encoding single-residue I1654A, Y1657D (this report), and K1662E exchanges in α11.2 were generated via QuikChange II as previously described ([15], [53]) using N-terminally eCFP ([15], [53]) or mCherry tagged ([54]) rat brain α11.2 plasmid template DNAs. We studied CDI using mCherry-tagged α11.2 subunit coexpressed with the other, untagged CaV1.2 subunits and WT CaM or the calmodulin 34 mutant CaM34 (kindly provided by JP Adelman, ([8])). For some biochemical experiments shown in Fig. S2, YFP-tagged CaM was used ([32]).
(§2) Single-channel recordings were performed as described previously ([15], [31]). In brief, low noise raw data were recorded with an Axopatch 200B amplifier and data were sampled at 10 kHz with a low-pass filter at 2 kHz (3 dB, four pole Bessel) and digitalized with a Digidata 1440 digitizer. Recording electrodes were pulled from borosilicate capillary glass ([…]) with a Flaming/Brown micropipette puller (Model P-97, Sutter Instruments), heat polished, and coated with Sylgard (Sylgard 289) until close to the electrode tip. Electrode resistance in solution was usually 5 to 10 MΩ. To keep the membrane potential close to 0 mV the extracellular bath solution contained (in mM) 120 K-Glutamate, 25 KCl, 2 MgCl2, 1 CaCl2, 10 EGTA, 10 Hepes, and 2 Na2-ATP pH 7.4 (KOH). The intracellular pipette solution contained (in mM) 110 BaCl2 and 10 Hepes, adjusted to pH 7.4 (TEA-OH). Cells were depolarized for 2 s from a holding potential of -80 mV to 0 mV every 7 s. Event lists were created from raw Ba^2+ currents after leak and capacity transients were digitally subtracted by pClamp 10. Unitary current events were then analyzed based on the half-height criterium ([57]) using the single-channel software provided by pClamp 10.
(§3) For statistical analysis, single-channel parameters were corrected by the channel number (k), respectively, the maximum of simultaneously open channels (PMAX). The number of channels in the patch was estimated based on the observed simultaneous openings and is a precise parameter for k < 4, as included in this article and originally described by R. Horn ([58]). On average, 100 to 200 Ba^2+ current traces were recorded for each cell for each experimental condition for an appropriate statistical analysis.
Table S2. Biophysical properties of WT and Y1657D mutant CaV1.2 as determined by single channel recordings with 110 mM Ba2+. HEK 293T/17 cells were transiently transfected with eCFP-tagged rat CaV1.2 (WT versus Y1657D) plus α2δ1 and β2a. Single-channel parameter were corrected for the number of channels (k) in the patch. Availability denotes the number of active over […] traces. Popen (Po) is the open probability within active traces. Ipeak is the current flown through all channels in a patch at the time point of the current maximum and was corrected by the number of channels. Mean ensemble average (MEA) is the mean average current of all traces after being superimposed. […]

CaV1.2 [2] = experiment: Cell-attached single-channel recording of CaV1.2 with ectopic CaM in HEK 293T/17 cells; type: cell-based, rat; details: 110 mM Ba2+, 0 mV from -80 mV; mean±SEM (Table S3)
Description: as §1, §2, §3
Table S3. Effects of ectopically expressed CaM and CaM34 on CaV1.2 as determined by single channel recordings with 110 mM Ba2+. HEK 293T/17 cells were transiently transfected with eCFP-tagged rat CaV1.2, α2δ1 and β2a alone or together with WT CaM (+CaM) or CaM34 (+CaM34). Parameters were corrected for the number of channels (k) in the patch. Recordings were obtained at a test potential of 0 mV from a holding potential of -80 mV. For all parameters, statistical significance p was determined for CaV1.2 without ectopic CaM expression and for CaV1.2 plus CaM34 agains CaV1.2 plus wt CaM (one-way ANOVA followed by Bonferroni test). […]

CaV1.2: WT rat brain α11.2 with α2δ1 and β2A expressed in HEK 293T/17 cells
Availability (CaV1.2 [1]): 65±12% | IPeak (CaV1.2 [1]): 21.2±5.3 fA | MEA (mean ensemble average) (CaV1.2 [1]): 8.5±2.4 fA | MOT (mean open time) (CaV1.2 [1]): 1.4 ± 0.2 ms | Po (CaV1.2 [1]): 2.0±0.5% | unitary i (CaV1.2 [1]): 0.7±0.04 pA | Availability (CaV1.2 [2]): 77±7% | IPeak (CaV1.2 [2]): 19.7±4.0 fA | MEA (mean ensemble average) (CaV1.2 [2]): 9.6±2.4 fA | MOT (mean open time) (CaV1.2 [2]): 1.2 ± 0.2 ms | Po (CaV1.2 [2]): 2.3±0.6% | unitary i (CaV1.2 [2]): 0.81±0.03 pA
